Data on three compounds can be found in PMC5013675, “Nucleotide binding by the widespread high-affinity cyclic di-GMP receptor MshEN domain” (Nature Communications, 2016).

Where “and” joins values, the source holds several entries; their conditions need not be identical. Equal entries are not always repeated.

For one experiment, the system named is VcMshEN wild type. The experiment is classed as binding, Vibrio cholerae.
A further experiment deals with VcMshEN1-145 (wild type) (Vibrio cholerae, UniProt Q9KUV7). Put plainly: biochemical. Format: binding.
The target of experiment [1] is MshEN analogues, diverse bacterial proteins with the c-di-GMP-binding motif. The following applies: read-out: binding constants.
For experiment [2], the system named is full-length MshE protein (ATPase). The following applies: cited from earlier work.
The target in another experiment is V. cholerae MshEN_N1-65 (Vibrio cholerae, UniProt Q9KUV7). Briefly: biochemical. Format: binding.
For experiment [3], the target named is P. aeruginosa PA3740 (AAG07127). The following applies: cited from earlier work.
Experiment [4] has as its target D. geothermalis PilB_3 (ABF44566 301-475). Put plainly: ITC titration of D. geothermalis PilB_3 with c-di-GMP. Format: binding, Deinococcus geothermalis. The following applies: ABF44566_III, ND = not detectable. For orientation: Isothermal titration calorimetry measures the heat released or taken up as one component is titrated into another.
The target of experiment [5] is Aeromonas veronii CheA (EKB11881 261-390). The experiment is classed as binding. The following applies: read-out: Dissociation constant (KD).
Experiment [6] has as its target T1, Moorella thermoacetica GspE (ABC19863 1-141) (Neomoorella thermoacetica, UniProt A0AAC9HIF0).
T1 sequence (A0AAC9HIF0 1-141): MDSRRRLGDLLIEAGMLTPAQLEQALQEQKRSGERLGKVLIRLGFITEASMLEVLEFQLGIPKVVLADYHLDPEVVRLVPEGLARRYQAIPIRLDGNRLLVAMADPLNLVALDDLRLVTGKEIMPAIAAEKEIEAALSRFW
Put plainly: ITC titration of Moorella thermoacetica GspE MshEN with c-di-GMP. The experiment is classed as binding.

For a further experiment, the target named is VcMshEN G40I (Vibrio cholerae, UniProt Q9KUV7, G40I). The experiment is classed as binding.
Experiment [7] has as its target T2, D. geothermalis PilB_2 (ABF44566 151-300) (Deinococcus geothermalis, UniProt Q1J1R8).
T2 sequence (Q1J1R8 151-300): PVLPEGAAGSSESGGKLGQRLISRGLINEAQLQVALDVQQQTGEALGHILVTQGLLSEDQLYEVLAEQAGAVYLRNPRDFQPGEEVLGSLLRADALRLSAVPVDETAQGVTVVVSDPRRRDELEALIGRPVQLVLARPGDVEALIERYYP
Briefly: ITC titration of D. geothermalis PilB_2 with c-di-GMP. The experiment is classed as binding.

In the next experiment the target is GST (Schistosoma japonicum, UniProt P08515). Put plainly: ITC control, GST alone with c-di-GMP. Format: binding.

Consider cGMP, for which, in the experiment with VcMshEN wild type, the “Binding to the MshEN domain” value was “cannot bind”.

As to c-di-AMP, on VcMshEN1-145 (wild type), the “Dissociation constant (KD)” value is “non-detectable” and the KD entry is recorded as “non-detectable”.

Turning to `Nc1nc2c(ncn2[C@@H]2O[C@@H]3CO[P@](=O)(O)O[C@H]4[C@@H](O)[C@H](n5cnc6c(=O)[nH]c(N)nc65)O[C@@H]4CO[P@](=O)(O)O[C@H]3[C@H]2O)c(=O)[nH]1` [c-di-GMP, Cyclic dimeric GMP], the Kd in experiment [1] is around 500 nM; on V. cholerae MshEN_N1-65, 350 nM; in experiment [3] it was around 30 nM; in experiment [5], 2600 nM; in [6] (read-out: Dissociation constant (KD)) it was 460 nM; in [7] (KD, middle domain of PilB (ABF44566)), 14 nM and 13.5 nM. This compound came in with a Kd at VcMshEN1-145 (wild type) of 500 nM. In addition, in experiment [2], the “Stimulation of ATPase activity by external c-di-GMP” value is below 10%. Moreover, the Ligand/protein ratio at V. cholerae MshEN_N1-65 was determined as 0.99; in [6], 1.01; in experiment [7] it was 1.01. Moreover, the “Dissociation constant (KD)” value in [4] is on record as “completely lost it binding affinity”. Further, the “Fold change of KD” value at VcMshEN G40I worked out at 72.0. Further, the “Melting temperature Tm, + c-di-GMP” value with VcMshEN wild type is on record as 71 ºC. Also, the Melting temperature increase with VcMshEN wild type is recorded as 9 º. The “Tm Difference (+ c-di-GMP minus absence)” value with VcMshEN wild type is given as 10 ºC. Besides, at GST, the c-di-GMP binding result is listed as “no c-di-GMP binding”.
